Measurements taken from patent US20110301087A1, “CRF1 RECEPTOR COMPOUNDS” (priority 2008, published 2011).
Where a SMILES comes first, the peptide text is derived from it. [ ]: non-standard residue; d: D form. The star is where a group is joined. Palmitoyl = CCCCCCCCCCCCCCCC(=O)*; Nle = CCCC[C@H](N)C(=O)O

Target: T1, CRF1 (Homo sapiens, UniProt P34998)
T1 construct: endogenously expresses functional CRF1; endogenous in cells; host or cells: Y-79 human retinoblastoma cells
T1 sequence (P34998 24-415): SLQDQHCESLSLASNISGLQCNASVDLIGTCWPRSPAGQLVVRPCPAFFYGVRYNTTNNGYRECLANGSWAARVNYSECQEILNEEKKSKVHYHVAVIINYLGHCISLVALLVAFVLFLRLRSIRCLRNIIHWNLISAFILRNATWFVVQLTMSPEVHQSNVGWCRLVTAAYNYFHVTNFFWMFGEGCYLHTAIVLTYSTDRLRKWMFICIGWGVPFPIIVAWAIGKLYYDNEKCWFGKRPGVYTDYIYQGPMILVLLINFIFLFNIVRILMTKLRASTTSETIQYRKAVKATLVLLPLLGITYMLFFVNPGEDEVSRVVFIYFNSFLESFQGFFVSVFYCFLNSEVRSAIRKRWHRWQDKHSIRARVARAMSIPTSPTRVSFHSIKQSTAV
Experiment: CRF1 assessment of cAMP (HTRF cAMP assay) in Y-79 cells, antagonist mode
Format: cell-based
Conditions: Y79 cells; for IC50: CRF1 cAMP screening, against agonist; for inhibition at 0.3 µM: 300 nM pepducin against agonist dose response, read-out: % Inhibition (± SD)
From the text: HTRF (homogeneous time resolved fluorescence) is a technology developed by Cisbio Bioassays based on TR-FRET (time-resolved fluorescence resonance energy transfer). Cisbio Bioassays has developed a wide selection of HTRF-based assays compatible with whole cells, thereby enabling functional assays run under more physiological conditions. cAMP kits are based on a competitive immunoassay using cryptate-labeled anti-cAMP antibody and d2-labeled cAMP. This assay allows the measurement of increase in intracellular cAMP upon Gs-coupled receptor activation as well as decrease in forskolin stimulated increase in cAMP upon Gi-coupled receptor activation. Cells expressing CRF1 endogenously or via transfection can be used to assess compound pharmacology using cAMP assays as a means to measure the activity of adenylyl cyclase resulting from CRF1 activation or inhibition.
An example of the use of the cAMP assay can be assessing CRF activation of CRF1 in Y-79, a human retinoblastoma cell line which endogenously expresses functional CRF1. Y-79 cells were seeded into 96-well half area black plates at 30K/well in Hank's balanced salt solution with 50 mM HEPES, 0.1% BSA, 200 uM IBMX. Compounds to be tested for agonist activity were added to cells, incubated for 30 minutes at 37 degrees C. and assayed for cAMP concentration. To test for antagonist activity, compounds to be tested were added to cells, followed by the addition of agonist at an experimentally determined optimal concentration, generally the EC80. Plates were incubated for 30 minutes at 37 degrees C. and assayed for cAMP. To determine concentration of cAMP in each well, d2-labeled cAMP in Conjugate/Lysis buffer was added to wells. This addition lysed the cells and input a known concentration of labeled cAMP. This was followed by the addition of anti-cAMP antibody conjugated to cryptate. FRET occurs when cryptate-labeled antibody binds to d2-labeled cAMP. Therefore, the specific signal is inversely proportional to the concentration of cAMP in the sample. Conversion of signal to concentration of cAMP in the well was accomplished by comparing the FRET signal of sample to a standard curve generated using known concentrations of cAMP.

Structure (SMILES) | IC50 | inhibition at 0.3 µM
CCCCCCCCCCCCCCCC(=O)N[C@H](C(=O)N[C@@H](CC(=O)O)C(=O)N[C@@H](CCCNC(=N)N)C(=O)N[C@@H](CC(C)C)C(=O)N[C@@H](CCCNC(=N)N)C(=O)N[C@@H](CCCCN)C(=O)N[C@@H](Cc1c[nH]c2ccccc12)C(=O)N[C@@H](CCSC)C(=O)N[C@@H](C)C(=O)N[C@H](C(N)=O)[C@@H](C)CC)[C@@H](C)O [Compound 43] (Palmitoyl-TDRLRKWMAI-NH2) | > 10 µM | 48%
CCCCCCCCCCCCCCCC(=O)N[C@@H](C)C(=O)N[C@@H](CC(=O)O)C(=O)N[C@@H](CCCNC(=N)N)C(=O)N[C@@H](CC(C)C)C(=O)N[C@@H](CCCNC(=N)N)C(=O)N[C@@H](CCCCN)C(=O)N[C@@H](Cc1c[nH]c2ccccc12)C(=O)N[C@@H](CCSC)C(=O)N[C@@H](Cc1ccccc1)C(=O)N[C@H](C(N)=O)[C@@H](C)CC [Compound 44] (Palmitoyl-ADRLRKWMFI-NH2) | > 10 µM | 42%
CCCCCCCCCCCCCCCC(=O)N[C@H](C(=O)N[C@@H](C)C(=O)N[C@@H](CCCNC(=N)N)C(=O)N[C@@H](CC(C)C)C(=O)N[C@@H](CCCNC(=N)N)C(=O)N[C@@H](CCCCN)C(=O)N[C@@H](Cc1c[nH]c2ccccc12)C(=O)N[C@@H](CCSC)C(=O)N[C@@H](Cc1ccccc1)C(=O)N[C@H](C(N)=O)[C@@H](C)CC)[C@@H](C)O [Compound 45] (Palmitoyl-TARLRKWMFI-NH2) | > 10 µM | 70%
CCCCCCCCCCCCCCCC(=O)N[C@H](C(=O)N[C@@H](CC(=O)O)C(=O)N[C@@H](C)C(=O)N[C@@H](CC(C)C)C(=O)N[C@@H](CCCNC(=N)N)C(=O)N[C@@H](CCCCN)C(=O)N[C@@H](Cc1c[nH]c2ccccc12)C(=O)N[C@@H](CCSC)C(=O)N[C@@H](Cc1ccccc1)C(=O)N[C@H](C(N)=O)[C@@H](C)CC)[C@@H](C)O [Compound 46] (Palmitoyl-TDALRKWMFI-NH2) | > 10 µM | 58%
CCCCCCCCCCCCCCCC(=O)N[C@H](C(=O)N[C@@H](CC(=O)O)C(=O)N[C@@H](CCCNC(=N)N)C(=O)N[C@@H](C)C(=O)N[C@@H](CCCNC(=N)N)C(=O)N[C@@H](CCCCN)C(=O)N[C@@H](Cc1c[nH]c2ccccc12)C(=O)N[C@@H](CCSC)C(=O)N[C@@H](Cc1ccccc1)C(=O)N[C@H](C(N)=O)[C@@H](C)CC)[C@@H](C)O [Compound 47] (Palmitoyl-TDRARKWMFI-NH2) | 1 to 5 µM | 62%
CCCCCCCCCCCCCCCC(=O)N[C@H](C(=O)N[C@@H](CC(=O)O)C(=O)N[C@@H](CCCNC(=N)N)C(=O)N[C@@H](CC(C)C)C(=O)N[C@@H](CCCNC(=N)N)C(=O)N[C@@H](C)C(=O)N[C@@H](Cc1c[nH]c2ccccc12)C(=O)N[C@@H](CCSC)C(=O)N[C@@H](Cc1ccccc1)C(=O)N[C@H](C(N)=O)[C@@H](C)CC)[C@@H](C)O [Compound 49] (Palmitoyl-TDRLRAWMFI-NH2) | > 10 µM | 42%
CCCCCCCCCCCCCCCC(=O)N[C@H](C(=O)N[C@@H](CC(=O)O)C(=O)N[C@@H](CCCNC(=N)N)C(=O)N[C@@H](CC(C)C)C(=O)N[C@@H](CCCNC(=N)N)C(=O)N[C@@H](CCCCN)C(=O)N[C@@H](C)C(=O)N[C@@H](CCSC)C(=O)N[C@@H](Cc1ccccc1)C(=O)N[C@H](C(N)=O)[C@@H](C)CC)[C@@H](C)O [Compound 50] (Palmitoyl-TDRLRKAMFI-NH2) | > 10 µM | 58%
CCCCCCCCCCCCCCCC(=O)N[C@H](C(=O)N[C@@H](CC(=O)O)C(=O)N[C@@H](CCCNC(=N)N)C(=O)N[C@@H](CC(C)C)C(=O)N[C@@H](CCCNC(=N)N)C(=O)N[C@@H](CCCCN)C(=O)N[C@@H](Cc1c[nH]c2ccccc12)C(=O)N[C@@H](C)C(=O)N[C@@H](Cc1ccccc1)C(=O)N[C@H](C(N)=O)[C@@H](C)CC)[C@@H](C)O [Compound 51] (Palmitoyl-TDRLRKWAFI-NH2) | 0.501 to 1 µM | 47 ± 7%
CCCCCCCCCCCCCCCC(=O)N[C@H](C(=O)N[C@@H](CC(=O)O)C(=O)N[C@@H](CCCNC(=N)N)C(=O)N[C@@H](CC(C)C)C(=O)N[C@@H](CCCNC(=N)N)C(=O)N[C@@H](CCCCN)C(=O)N[C@@H](Cc1c[nH]c2ccccc12)C(=O)N[C@@H](CCSC)C(=O)N[C@@H](Cc1ccccc1)C(=O)N[C@@H](C)C(N)=O)[C@@H](C)O [Compound 52] (Palmitoyl-TDRLRKWMFA-NH2) | > 10 µM | 70%

The remaining lines, values ahead:

IC50 | inhibition at 0.3 µM | Structure (SMILES)
 | 50 ± 14% | CCCCCCCCCCCCCCCC(=O)NCC(=O)N[C@@H](CO)C(=O)N[C@H](C(=O)N[C@@H](CC(=O)O)C(=O)N[C@@H](CCCNC(=N)N)C(=O)N[C@@H](CC(C)C)C(=O)N[C@@H](CCCNC(=N)N)C(=O)N[C@@H](CCCCN)C(=O)N[C@@H](C)C(=O)N[C@@H](CCCC)C(=O)N[C@@H](Cc1ccccc1)C(=O)N[C@H](C(N)=O)[C@@H](C)CC)[C@@H](C)O [Compound 53] (Palmitoyl-GSTDRLRKA[Nle]FI-NH2)
 | 55 ± 7% | CCCCCCCCCCCCCCCC(=O)N[C@H](C(=O)N[C@@H](CC(=O)O)C(=O)N[C@@H](CCCNC(=N)N)C(=O)N[C@@H](CC(C)C)C(=O)N[C@@H](CCCNC(=N)N)C(=O)N[C@@H](CCCCN)C(=O)N[C@@H](Cc1c[nH]c2ccccc12)C(=O)N[C@@H](CCCC)C(=O)N[C@@H](Cc1ccccc1)C(=O)N[C@H](C(N)=O)[C@@H](C)CC)[C@@H](C)O [Compound 54] (Palmitoyl-TDRLRKW[Nle]FI-NH2)
0.501 to 1 µM | 35% | CCCCCCCCCCCCCCCC(=O)N[C@@H](CCCNC(=N)N)C(=O)N[C@H](C(=O)N[C@@H](CC(C)C)C(=O)N[C@@H](CCSC)C(=O)N[C@H](C(=O)N[C@@H](CCCCN)C(=O)N[C@@H](CC(C)C)C(=O)N[C@@H](CCCNC(=N)N)C(=O)N[C@@H](C)C(=O)N[C@@H](CO)C(=O)N[C@H](C(=O)N[C@H](C(=O)N[C@@H](CO)C(N)=O)[C@@H](C)O)[C@@H](C)O)[C@@H](C)O)[C@@H](C)CC [Compound 58, Pal-RILMTKLRASTTS-amide] (Palmitoyl-RILMTKLRASTTS-NH2)
1 to 5 µM | 50% | CCCCCCCCCCCCCCCC(=O)N[C@@H](C)C(=O)N[C@@H](CO)C(=O)N[C@H](C(=O)N[C@H](C(=O)N[C@@H](CO)C(=O)N[C@@H](CCC(=O)O)C(=O)N[C@H](C(=O)N[C@H](C(=O)N[C@@H](CCC(N)=O)C(=O)N[C@@H](Cc1ccc(O)cc1)C(=O)N[C@@H](CCCNC(=N)N)C(=O)N[C@@H](CCCCN)C(=O)N[C@@H](C)C(=O)N[C@H](C(=O)N[C@@H](CCCCN)C(=O)N[C@@H](CO)C(N)=O)C(C)C)[C@@H](C)CC)[C@@H](C)O)[C@@H](C)O)[C@@H](C)O [Compound 62] (Palmitoyl-ASTTSETIQYRKAVKS-NH2)
1 to 5 µM | 55 ± 13% | CCCCCCCCCCCCCCCC(=O)NCC(=O)N[C@@H](CO)C(=O)N[C@H](C(=O)N[C@@H](CCCNC(=N)N)C(=O)N[C@@H](C)C(=O)N[C@@H](CCCNC(=N)N)C(=O)N[C@H](C(=O)N[C@@H](C)C(=O)N[C@@H](CCCNC(=N)N)C(=O)N[C@@H](C)C(=O)N[C@@H](CCSC)C(N)=O)C(C)C)[C@@H](C)CC [Compound 64] (Palmitoyl-GSIRARVARAM-NH2)
